ChEMBL document CHEMBL1137975, “DNA binding ligands with in vivo efficacy in murine models of bacterial infection: optimization of internal aromatic amino acids” (2004)
Converted amounts (≈) assume the structure as drawn.

How the values were obtained:
[1] = Minimum inhibitory concentration in mice against antimicrobial activity in […] (PISP 49619).; assay type: functional; conditions: Streptococcus pneumoniae
[2] = system: Staphylococcus aureus; assay: Minimum inhibitory concentration in mice against antimicrobial activity in methicillin-resistant Staphylococcus aureus(MRSA 27660).; assay type: functional
[3] = system: Enterococcus faecalis; assay: Minimum inhibitory concentration in mice against antimicrobial activity in vancomycin-sensitive Enterococcus faecalis (VSEF 29212).
[4] = organism: Mus musculus; assay: Minimum inhibitory concentration was evaluated in mice against antimicrobial activity in methicillin-resistant Staphylococcus aureus(MRSA 27660); 1-2; assay type: functional
[5] = organism: Mus musculus; assay: Minimum inhibitory concentration was evaluated in mice against antimicrobial activity in […] (PISP 49619); 0.13-0.25; assay type: functional
[6] = organism: Mus musculus; assay: Minimum inhibitory concentration was evaluated in mice against antimicrobial activity in […] (PISP 49619); 1-2; assay type: functional
[7] = organism: Mus musculus; assay: Minimum inhibitory concentration was evaluated in mice against antimicrobial activity in […] Enterococcus faecalis (VSEF 29212); 0.5-2; assay type: functional
[8] = organism: Mus musculus; assay: Minimum inhibitory concentration was evaluated in mice against antimicrobial activity in methicillin-resistant Staphylococcus aureus(MRSA 27660); 0.25-1; assay type: functional
[9] = organism: Mus musculus; assay: Minimum inhibitory concentration was evaluated in mice against antimicrobial activity in […] Enterococcus faecalis (VSEF 29212); 0.13-1; assay type: functional
[10] = organism: Mus musculus; assay: Minimum inhibitory concentration was evaluated in mice against antimicrobial activity in […] (PISP 49619); 0.03-0.13; assay type: functional
[11] = organism: Mus musculus; assay: Minimum inhibitory concentration was evaluated in mice against antimicrobial activity in […] (PISP 49619); 1-32; assay type: functional
[12] = organism: Mus musculus; assay: Minimum inhibitory concentration was evaluated in mice against antimicrobial activity in methicillin-resistant Staphylococcus aureus(MRSA 27660); 0.06-0.13; assay type: functional
[13] = organism: Mus musculus; assay: Minimum inhibitory concentration was evaluated in mice against antimicrobial activity in […] (PISP 49619); 0.03-0.06; assay type: functional
[14] = organism: Mus musculus; assay: Minimum inhibitory concentration was evaluated in mice against antimicrobial activity in […] (PISP 49619); 0.5-2; assay type: functional
[15] = organism: Mus musculus; assay: Minimum inhibitory concentration was evaluated in mice against antimicrobial activity in […] Enterococcus faecalis (VSEF 29212); 2-8; assay type: functional
[16] = organism: Mus musculus; assay: Minimum inhibitory concentration was evaluated in mice against antimicrobial activity in […] (PISP 49619); 0.5-1; assay type: functional

Compound | MIC [1] [µg/mL] | MIC [2] [µg/mL] | MIC [3] [µg/mL] | other results
CC(C)n1cc(NC(=O)c2cc(NC(=O)c3cc(NC(=O)c4sccc4Cl)cn3C)cn2C)cc1C(=O)NCCN1CCOCC1 | 0.25 (≈ 0.374 µM) | 1 (≈ 1.49 µM) | 1 (≈ 1.49 µM) | –
CC(C)n1cc(NC(=O)c2cc(NC(=O)c3sccc3Cl)cn2C)cc1C(=O)Nc1cc(C(=O)NCCN2CCOCC2)n(C)c1 | 0.5 (≈ 0.747 µM) | 1 (≈ 1.49 µM) | 1 (≈ 1.49 µM) | –
Cn1cc(NC(=O)c2cc(NC(=O)c3cc(NC(=O)c4cc5ccccc5cn4)cs3)cn2C)cc1C(=O)NCCN1CCOCC1 | – | – | – | MIC [4]: 2 µg/mL (≈ 3.05 µM); MIC [5]: 0.25 µg/mL (≈ 0.382 µM)
Cn1cc(NC(=O)c2ccc(NC(=O)c3cc(NC(=O)c4ccccn4)cn3C)cc2)cc1C(=O)NCCN1CCOCC1 | 0.5 (≈ 0.835 µM) | > 32 | > 32 | –
Cn1cc(NC(=O)c2cc(NC(=O)c3cc(NC(=O)c4cc5ccccc5cn4)cn3C)nn2C)cc1C(=O)NCCN1CCOCC1 | 0.25 (≈ 0.383 µM) | 0.5 (≈ 0.766 µM) | 1 (≈ 1.53 µM) | –
Cn1cc(NC(=O)c2ccc(NC(=O)c3cc(NC(=O)c4ccc(F)cc4F)cn3C)cc2)cc1C(=O)NCCN1CCOCC1 | 0.5 (≈ 0.789 µM) | 32 (≈ 50.5 µM) | 8 (≈ 12.6 µM) | –
Cn1cc(NC(=O)c2ccc(NC(=O)c3cc(NC(=O)c4cc5cc6c(cc5s4)OCO6)cn3C)cc2)cc1C(=O)NCCN1CCOCC1 | 0.5 (≈ 0.717 µM) | 32 (≈ 45.9 µM) | > 32 | –
Cn1cc(NC(=O)c2cc(NC(=O)c3cc(NC(=O)c4cc5ccccc5cn4)nn3C)cn2C)cc1C(=O)NCCN1CCOCC1 | 0.5 (≈ 0.766 µM) | 1 (≈ 1.53 µM) | 8 (≈ 12.3 µM) | –
Cn1cc(NC(=O)c2cc(NC(=O)c3cc(NC(=O)c4cc5ccccc5cn4)cn3C)cn2C)cc1C(=O)NCCN1CCOCC1 | 0.06 (≈ 0.0921 µM) | 0.5 (≈ 0.767 µM) | 0.25 (≈ 0.384 µM) | –
Cn1cc(NC(=O)c2sccc2Cl)cc1C(=O)Nc1cc(C(=O)Nc2ccc(C(=O)NCCN3CCOCC3)cc2)n(C)c1 | > 32 | > 32 | > 32 | –
Cn1cc(NC(=O)c2cccc(NC(=O)c3cc(NC(=O)c4sccc4Cl)cn3C)c2)cc1C(=O)NCCN1CCOCC1 | > 32 | > 32 | > 32 | –
Cn1cc(NC(=O)c2ccc(NC(=O)c3cc(NC(=O)c4cnc5ccccc5c4)cn3C)cc2)cc1C(=O)NCCN1CCOCC1 | 2 (≈ 3.08 µM) | > 32 | > 32 | –
Cn1cc(NC(=O)c2cc(NC(=O)c3cc(NC(=O)c4cc5ccccc5cn4)cn3C)c[nH]2)cc1C(=O)NCCN1CCOCC1 | – | – | – | MIC [6]: 2 µg/mL (≈ 3.14 µM); MIC [7]: 2 µg/mL (≈ 3.14 µM); MIC [8]: 1 µg/mL (≈ 1.57 µM)
Cn1cc(NC(=O)c2cc(NC(=O)c3nc(NC(=O)c4sccc4Cl)cn3C)cn2C)cc1C(=O)NCCN1CCOCC1 | – | – | – | MIC [9]: 1 µg/mL (≈ 1.56 µM); MIC [10]: 0.13 µg/mL (≈ 0.202 µM)
CN[C@H](CC(C)C)C(=O)N[C@H]1C(=O)N[C@@H](CC(N)=O)C(=O)N[C@H]2C(=O)N[C@H]3C(=O)N[C@H](C(=O)N[C@H](C(=O)O)c4cc(O)cc(O)c4-c4cc3ccc4O)[C@H](O)c3ccc(c(Cl)c3)Oc3cc2cc(c3O[C@@H]2O[C@H](CO)[C@@H](O)[C@H](O)[C@H]2O[C@H]2C[C@](C)(N)[C@H](O)[C@H](C)O2)Oc2ccc(cc2Cl)[C@H]1O [VANCOMYCIN] | 0.25 (≈ 0.173 µM) | – | 1 (≈ 0.69 µM) | –
Cn1cc(NC(=O)c2cc(NC(=O)c3cc(NC(=O)c4sccc4Cl)cn3C)nn2C)cc1C(=O)NCCN1CCOCC1 | – | 32 (≈ 49.8 µM) | > 32 | MIC [11]: 32 µg/mL (≈ 49.8 µM)
Cn1cc(NC(=O)c2nc(NC(=O)c3cc(NC(=O)c4sccc4Cl)cn3C)cn2C)cc1C(=O)NCCN1CCOCC1 | 16 (≈ 24.9 µM) | > 32 | > 32 | –
Cn1cc(NC(=O)c2ccc(NC(=O)c3cc(NC(=O)c4cc5cc6c(cc5cn4)OCO6)cn3C)cc2)cc1C(=O)NCCN1CCOCC1 | 0.5 (≈ 0.722 µM) | 0.06 (≈ 0.0866 µM) | 0.5 (≈ 0.722 µM) | –
Cn1cc(NC(=O)c2ccc(NC(=O)c3cc(NC(=O)c4cc5ccccc5cn4)cn3C)cc2)cc1C(=O)NCCN1CCOCC1 | – | – | – | MIC [12]: 0.13 µg/mL (≈ 0.2 µM); MIC [13]: 0.06 µg/mL (≈ 0.0925 µM)
Cn1cc(NC(=O)c2sccc2Cl)cc1C(=O)Nc1cc(C(=O)Nc2cc(C(=O)NCCN3CCOCC3)n(C)n2)n(C)c1 | > 32 | > 32 | > 32 | –

Compound | MIC [1] [µg/mL] | MIC [2] [µg/mL] | MIC [3] [µg/mL] | other results
Cn1cc(NC(=O)c2cc(NC(=O)c3cc(NC(=O)c4sccc4Cl)nn3C)cn2C)cc1C(=O)NCCN1CCOCC1 | 0.25 (≈ 0.389 µM) | 8 (≈ 12.5 µM) | 8 (≈ 12.5 µM) | –
Cn1cc(NC(=O)c2cc(NC(=O)c3nc(NC(=O)c4cc5ccccc5cn4)cn3C)cn2C)cc1C(=O)NCCN1CCOCC1 | 0.25 (≈ 0.383 µM) | 1 (≈ 1.53 µM) | 1 (≈ 1.53 µM) | –
Cn1cc(NC(=O)c2cc(NC(=O)c3cccc(NC(=O)c4sccc4Cl)c3)cn2C)cc1C(=O)NCCN1CCOCC1 | > 32 | > 32 | > 32 | –
Cn1cc(NC(=O)c2sccc2Cl)cc1C(=O)Nc1cc(C(=O)Nc2cccc(C(=O)NCCN3CCOCC3)c2)n(C)c1 | 8 (≈ 12.5 µM) | 16 (≈ 25.1 µM) | 16 (≈ 25.1 µM) | –
Cn1cc(NC(=O)c2cc(NC(=O)CCNC(=O)c3cc4ccccc4cn3)cn2C)cc1C(=O)NCCN1CCOCC1 | 8 (≈ 13.3 µM) | 32 (≈ 53.3 µM) | 16 (≈ 26.6 µM) | –
Cn1cc(NC(=O)c2cc(NC(=O)c3cc(NC(=O)c4sccc4Cl)cn3C)c[nH]2)cc1C(=O)NCCN1CCOCC1 | – | 8 (≈ 12.8 µM) | – | MIC [14]: 2 µg/mL (≈ 3.19 µM); MIC [15]: 8 µg/mL (≈ 12.8 µM)
Cn1cc(NC(=O)c2ccc(NC(=O)c3cc(NC(=O)c4sc5ccccc5c4Cl)cn3C)cc2)cc1C(=O)NCCN1CCOCC1 | 0.25 (≈ 0.363 µM) | > 32 | 16 (≈ 23.2 µM) | –
Cc1cnc(C(=O)Nc2cc(C(=O)Nc3ccc(C(=O)Nc4cc(C(=O)NCCN5CCOCC5)n(C)c4)cc3)n(C)c2)cn1 | 0.13 (≈ 0.212 µM) | 0.5 (≈ 0.815 µM) | 2 (≈ 3.26 µM) | –
CC(C)n1cc(NC(=O)c2sccc2Cl)cc1C(=O)Nc1cc(C(=O)Nc2cc(C(=O)NCCN3CCOCC3)n(C)c2)n(C)c1 | 2 (≈ 2.99 µM) | 4 (≈ 5.98 µM) | 4 (≈ 5.98 µM) | –
CC(=O)NCC1CN(c2ccc(N3CCOCC3)c(F)c2)C(=O)O1 (single isomer, unassigned) [LINEZOLID] | 1 (≈ 2.96 µM) | – | – | –
Cn1cc(NC(=O)c2cc(NC(=O)c3cc(NC(=O)c4cc5ccccc5cn4)c[nH]3)cn2C)cc1C(=O)NCCN1CCOCC1 | – | – | 0.5 (≈ 0.784 µM) | MIC [16]: 1 µg/mL (≈ 1.57 µM); MIC [4]: 2 µg/mL (≈ 3.14 µM)
Cn1cc(NC(=O)c2ccc(NC(=O)c3cc(NC(=O)c4sccc4Cl)cn3C)cc2)cc1C(=O)NCCN1CCOCC1 | 1 (≈ 1.57 µM) | 8 (≈ 12.5 µM) | 2 (≈ 3.13 µM) | –
Cn1cc(NC(=O)c2cc(NC(=O)c3ccc(NC(=O)c4sccc4Cl)cc3)cn2C)cc1C(=O)NCCN1CCOCC1 | 32 (≈ 50.1 µM) | 32 (≈ 50.1 µM) | 16 (≈ 25.1 µM) | –
Cn1cc(NC(=O)c2cc(NC(=O)c3cc(NC(=O)c4cc5ccccc5cn4)on3)cn2C)cc1C(=O)NCCN1CCOCC1 | 0.13 (≈ 0.203 µM) | 0.06 (≈ 0.0938 µM) | 0.5 (≈ 0.782 µM) | –
Cn1cc(NC(=O)c2sccc2Cl)cc1C(=O)Nc1cc(C(=O)Nc2c[nH]c(C(=O)NCCN3CCOCC3)c2)n(C)c1 | 8 (≈ 12.8 µM) | 16 (≈ 25.5 µM) | 32 (≈ 51 µM) | –
Cn1cc(NC(=O)c2ccc(NC(=O)c3cc(NC(=O)c4nccc5ccccc45)cn3C)cc2)cc1C(=O)NCCN1CCOCC1 | 0.25 (≈ 0.385 µM) | 1 (≈ 1.54 µM) | 2 (≈ 3.08 µM) | –
Cn1cc(NC(=O)c2cc(NC(=O)c3cc(NC(=O)c4sccc4Cl)c[nH]3)cn2C)cc1C(=O)NCCN1CCOCC1 | 2 (≈ 3.19 µM) | 8 (≈ 12.8 µM) | 2 (≈ 3.19 µM) | –
Cn1cc(NC(=O)c2ccc(NC(=O)c3cc(NC(=O)c4ccncn4)cn3C)cc2)cc1C(=O)NCCN1CCOCC1 | 0.5 (≈ 0.834 µM) | > 32 | 32 (≈ 53.4 µM) | –
Cn1cc(NC(=O)c2cc(NC(=O)c3cc(NC(=O)c4cc5ccccc5cn4)cn3C)cs2)cc1C(=O)NCCN1CCOCC1 | 0.5 (≈ 0.764 µM) | 8 (≈ 12.2 µM) | > 32 | –
Cn1cc(NC(=O)c2sccc2Cl)cc1C(=O)Nc1cc(C(=O)Nc2cn(C)c(C(=O)NCCN3CCOCC3)n2)n(C)c1 | > 32 | > 32 | > 32 | –
